Reference: article PMC9574867, “Discovery and Characterization of Synthesized and FDA-Approved Inhibitors of Clostridial and Bacillary Collagenases” (Journal of Medicinal Chemistry, 2022)
“Also recorded” adds a separate entry of the source.

Legend:
ColQ1-CU [1] = target: T1, ColQ1-CU (Bacillus cereus, UniProt B9J3S4); format: binding, B. cereus; details: intact protein HPLC-MS, overnight treatment
ColG-CU = ColG-CU (Hathewaya histolytica, UniProt Q9X721); format: biochemical, C. histolyticum; details: rapid dilution
ColH-PD = ColH-PD (Hathewaya histolytica, UniProt Q46085); assay: biochemical; format: biochemical, C. histolyticum; details: 100 μM; read-out: Percent inhibition of ColH-PD
[2] = system: MDCK II cells infected with B. cereus AH187; format: cell-based, canine
[3] = system: NHDF cells infected with B. cereus; assay: NHDF infection model, cell morphology/attachment and fibrillar collagen (picrosirius red); format: cell-based, human; details: B. cereus infection, 5 h
in vitro [4] = details: human, HepG2 cells (hepatocellular carcinoma)
TACE (ADAM-17) = TACE (ADAM-17) (Homo sapiens, UniProt P78536); assay: Human off-target inhibition, TACE; format: biochemical
ColQ1-CU [5] = target: T1, ColQ1-CU; format: biochemical, B. cereus
ColA-CU = ColA-CU (Bacillus cereus, UniProt Q81BJ6); format: biochemical, B. cereus; details: rapid dilution
[6] = system: B. cereus collagenases released in the NHDF infection model; format: cell-based, B. cereus AH187
in vitro [7] = details: human, HEK293 cells (embryonal kidney)
[8] = system: NHDF cells infected with B. cereus; assay: NHDF infection model, LDH release; format: cell-based, human; details: 5 h
Method: We further evaluated the effect of the diphosphonate and hydroxamate compounds on cell morphology, the fibrillar collagen content of the ECM, and cell viability in the infection model. […] Above a concentration of 25 μM, they were both able to sustain the cells during infection. The cells stayed attached and maintained their spindle shape (Figures S7 and S8), and above 50 μM, we observed a significant reduction in LDH release, indicating higher cell viability.
NHDF cells (1 × 10^5, Promo Cell C-12302) per well were seeded in 24-well plates (Greiner) with DMEM medium (Gibco) containing 10% (v/v) fetal calf serum (FCS, Gibco) and 1% (v/v) glutamine (Gibco). Prior to the treatment, the cells were cultured at 37 °C for 24 h with 5% CO2. In brain heart infusion (BHI) medium, B. cereus AH187 bacteria were cultivated to a mid-exponential phase. The culture was centrifuged at 4000g for 7 min at RT before being rinsed and diluted in PBS. […] The cell morphology was monitored with a light microscope (Olympus) using a 20X objective. […]
The manufacturer’s procedure was followed to measure the released LDH amount in the supernatant of NHDF cells. […] The absorbance was measured at 490 nm with a Tecan Infinite M200 plate reader (Tecan, Grödig, Austria). The cytotoxicity was calculated relative to the control (no inhibitor).

in vitro [9] = details: dog, MDCK II cells (Madin–Darby canine kidney II)
[10] = system: Galleria mellonella larvae; assay: Galleria mellonella larvae treated with compound only in PBS; format: in vivo; details: no bacteria
Method: Figure 8 Survival analysis of Galleria mellonella larvae treated with Bacillus cereus AH187 with and without 14 and tiludronate disodium. Each curve represents results of three independent experiments; the statistical difference between groups treated with 100, 50, and 25 μM of compound 14 and B. cereus AH187 and with the group treated only with B. cereus AH187 is p < 0.0001, p = 0.0039, and p = 0.0173, respectively. The statistical difference between groups treated with 100 μM tiludronate disodium and with B. cereus AH187 is p = 0.0032 (log-rank test). The survival rate for the larvae treated with compound 14 and tiludronate disodium in PBS was 100%.
G. mellonella larvae were purchased from a fishing store. Injections were carried out using an LA120 syringe pump (Landgraf Laborsysteme, Langenhagen, Germany) equipped with 1 mL Injekt-F tuberculin syringes (B. Braun, Melsungen, Germany) and Sterican 0.30 × […], 30 G × 1.5 needles (B. Braun). The larvae were divided into five groups depending on their treatment: (i) sterile PBS, (ii) no injection, (iii) only compound, (iv) BC AH187 bacterial suspension, and (v) BC AH187 bacterial suspension with compound. Larvae were incubated at 37 °C for 3 days and inspected twice daily. The total larvae used in all three experiments were 40 larvae per group.

T1 sequence (B9J3S4 94-765 limits assumed): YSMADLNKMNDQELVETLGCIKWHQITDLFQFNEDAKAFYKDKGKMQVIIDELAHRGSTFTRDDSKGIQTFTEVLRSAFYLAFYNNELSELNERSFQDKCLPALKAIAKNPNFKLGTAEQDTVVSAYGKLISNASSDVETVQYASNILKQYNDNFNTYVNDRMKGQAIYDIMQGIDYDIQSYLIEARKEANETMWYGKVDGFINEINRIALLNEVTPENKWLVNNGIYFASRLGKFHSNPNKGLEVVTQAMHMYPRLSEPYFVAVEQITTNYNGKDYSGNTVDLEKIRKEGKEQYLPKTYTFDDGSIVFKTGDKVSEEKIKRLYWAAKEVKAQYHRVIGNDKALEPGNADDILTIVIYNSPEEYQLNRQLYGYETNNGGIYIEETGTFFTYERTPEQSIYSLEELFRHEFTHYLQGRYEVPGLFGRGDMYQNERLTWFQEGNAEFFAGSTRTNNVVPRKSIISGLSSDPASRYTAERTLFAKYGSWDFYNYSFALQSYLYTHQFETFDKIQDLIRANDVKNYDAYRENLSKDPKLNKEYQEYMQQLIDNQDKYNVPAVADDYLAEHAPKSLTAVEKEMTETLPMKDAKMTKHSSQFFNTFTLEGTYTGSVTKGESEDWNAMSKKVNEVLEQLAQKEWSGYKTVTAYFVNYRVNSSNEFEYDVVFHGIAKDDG
TACE (ADAM-17), sequence (P78536 215-824): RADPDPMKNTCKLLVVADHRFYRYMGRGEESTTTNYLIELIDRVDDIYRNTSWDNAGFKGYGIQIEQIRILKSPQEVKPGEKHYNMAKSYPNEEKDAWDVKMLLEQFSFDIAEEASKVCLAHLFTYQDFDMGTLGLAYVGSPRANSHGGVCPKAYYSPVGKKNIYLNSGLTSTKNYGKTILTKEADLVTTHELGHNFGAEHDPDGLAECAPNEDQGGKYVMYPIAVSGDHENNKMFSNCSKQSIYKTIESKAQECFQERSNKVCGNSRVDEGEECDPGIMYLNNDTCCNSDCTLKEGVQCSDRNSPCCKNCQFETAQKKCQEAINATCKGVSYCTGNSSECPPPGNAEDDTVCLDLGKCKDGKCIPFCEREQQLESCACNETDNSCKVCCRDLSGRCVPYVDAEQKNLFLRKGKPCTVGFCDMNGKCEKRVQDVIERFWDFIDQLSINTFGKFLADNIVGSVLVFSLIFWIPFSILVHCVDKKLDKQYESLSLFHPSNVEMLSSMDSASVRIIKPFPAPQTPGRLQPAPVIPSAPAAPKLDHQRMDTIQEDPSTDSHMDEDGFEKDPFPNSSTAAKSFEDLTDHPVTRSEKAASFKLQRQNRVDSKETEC
ColH-PD, sequence (Q46085 331-721 limits assumed): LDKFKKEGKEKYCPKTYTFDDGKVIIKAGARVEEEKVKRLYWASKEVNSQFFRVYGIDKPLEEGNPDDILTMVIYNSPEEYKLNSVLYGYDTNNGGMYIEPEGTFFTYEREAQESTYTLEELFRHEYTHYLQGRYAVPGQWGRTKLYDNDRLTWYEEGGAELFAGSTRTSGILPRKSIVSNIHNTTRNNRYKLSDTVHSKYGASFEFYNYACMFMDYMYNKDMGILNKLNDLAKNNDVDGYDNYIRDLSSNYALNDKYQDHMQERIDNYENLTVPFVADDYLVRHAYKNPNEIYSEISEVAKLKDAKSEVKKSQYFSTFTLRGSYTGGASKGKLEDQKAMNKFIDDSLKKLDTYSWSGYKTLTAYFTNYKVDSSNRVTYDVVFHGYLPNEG
ColG-CU, sequence (Q9X721 111-786): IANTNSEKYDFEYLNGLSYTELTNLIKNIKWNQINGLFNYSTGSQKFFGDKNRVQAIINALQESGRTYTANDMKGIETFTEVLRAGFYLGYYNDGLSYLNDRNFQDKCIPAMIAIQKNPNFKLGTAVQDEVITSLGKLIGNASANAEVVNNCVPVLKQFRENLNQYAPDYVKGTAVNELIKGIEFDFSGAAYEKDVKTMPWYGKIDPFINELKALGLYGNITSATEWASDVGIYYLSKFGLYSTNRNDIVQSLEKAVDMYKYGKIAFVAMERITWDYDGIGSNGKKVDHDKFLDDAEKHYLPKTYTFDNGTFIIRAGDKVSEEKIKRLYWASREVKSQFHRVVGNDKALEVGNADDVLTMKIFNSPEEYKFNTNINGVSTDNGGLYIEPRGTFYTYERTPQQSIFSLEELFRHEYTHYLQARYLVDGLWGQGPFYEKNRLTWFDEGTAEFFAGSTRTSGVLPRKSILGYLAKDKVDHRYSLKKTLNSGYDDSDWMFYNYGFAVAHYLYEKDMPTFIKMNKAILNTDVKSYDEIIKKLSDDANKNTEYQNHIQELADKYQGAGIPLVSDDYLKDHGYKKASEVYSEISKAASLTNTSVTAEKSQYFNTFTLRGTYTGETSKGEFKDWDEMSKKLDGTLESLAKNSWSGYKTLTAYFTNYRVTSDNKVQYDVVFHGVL
ColA-CU, sequence (Q81BJ6 93-764): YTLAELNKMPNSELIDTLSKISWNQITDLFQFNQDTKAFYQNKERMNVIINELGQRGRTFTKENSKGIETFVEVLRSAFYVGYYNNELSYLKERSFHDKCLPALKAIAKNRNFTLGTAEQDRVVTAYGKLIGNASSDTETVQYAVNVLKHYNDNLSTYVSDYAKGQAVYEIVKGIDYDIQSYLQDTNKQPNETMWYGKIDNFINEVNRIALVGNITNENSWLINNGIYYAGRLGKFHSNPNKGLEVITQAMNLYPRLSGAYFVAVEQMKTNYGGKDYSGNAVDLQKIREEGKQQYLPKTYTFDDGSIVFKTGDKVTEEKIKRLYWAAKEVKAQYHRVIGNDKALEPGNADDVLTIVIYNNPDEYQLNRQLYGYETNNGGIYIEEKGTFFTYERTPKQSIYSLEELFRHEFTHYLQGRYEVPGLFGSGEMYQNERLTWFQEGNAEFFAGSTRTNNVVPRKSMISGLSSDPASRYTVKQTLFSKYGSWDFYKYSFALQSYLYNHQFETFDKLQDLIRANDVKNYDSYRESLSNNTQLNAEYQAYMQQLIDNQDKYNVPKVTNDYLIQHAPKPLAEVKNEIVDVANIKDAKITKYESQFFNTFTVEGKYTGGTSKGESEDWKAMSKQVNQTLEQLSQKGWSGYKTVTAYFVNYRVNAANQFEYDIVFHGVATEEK

Structure (SMILES)	Covalent modification of ColQ1-CU (ColQ1-CU [1])	Reversibility of inhibition, ColG (ColG-CU)	inhibition at 100 µM (ColH-PD)	TEER of infected MDCK II cells [2]	Concentration above which infected cells were sustained (attached, spindle shape) [3]	IC50 (in vitro [4])	IC50 (TACE (ADAM-17))	Residual activity after rapid dilution (ColQ1-CU [5]; 30 min preincubation at 10-fold IC50, 100-fold dilution)	Reversibility of inhibition, ColQ1-CU (ColQ1-CU [5]; rapid dilution)	Reversibility of inhibition, ColA-CU (ColA-CU)	Concentration giving complete inhibition of gelatinolytic activity [6]	IC50 (in vitro [7])	Concentration above which LDH release was significantly reduced [8]	IC50 (in vitro [9])	Survival rate of larvae treated with compound in PBS [10]
O=P(O)(O)c1nc2cc(Cl)c(Cl)cc2nc1P(=O)(O)O [Compound 13, (6,7-Dichloroquinoxaline-2,3-diyl)bis(phosphonic acid)]	No molecular masses displayed a mass shift indicating a covalently bound inhibitor; also recorded: did not result in a covalent modification	rapidly reversible inhibitors	83 ± 9%	failed to sustain the TEER of the infected cells	> 25 µM	> 100 µM	> 100 µM	less than 9%	very slowly dissociating reversible binder	only a minimal inhibition	200 µM	100 µM	above 50 μM	> 200 µM	
O=C(Nc1ccc(Cl)c(Cl)c1)c1ccc2nc(P(=O)(O)O)c(P(=O)(O)O)nc2c1 [Compound 14, (6-((3,4-Dichlorophenyl)carbamoyl)quinoxaline-2,3-diyl)bis(phosphonic acid)]			96 ± 2%	preserve the TEER value	> 25 µM	> 100 µM	> 100 µM				100 µM	> 100 µM	above 50 μM	> 100 µM	100%
